Source: patent US9458120B2, “Phenoxypropanol derivative and pharmaceutical composition including the same” (KOREA INSTITUTE OF SCIENCE AND TECHNOLOGY, priority 2011, dated 2016)

Assays:
[1] = target: α1G T-type calcium channel (Homo sapiens, UniProt O43497); assay: Assay for T-type calcium channel inhibition activity (FDSS6000 calcium imaging, KCl activation); type: cell-based; conditions: 75 s pre-treatment then KCl 75 mM, HEK293 cells expressing α1G T-type calcium channel and Kir2.1
Protocol: At 12-24 hours before the assay for T-type calcium channel activity, cells of HEK293 cell line (α1G cell line: KCTC 10519BP, GenBank, Korea Research Institute of Bioscience and Biotechnology) which stably express α1G T-type calcium channel and Kir2.1, were sub-cultured in a poly-L-lysine (0.05 mg/ml) treated 96-well plate with the density of 4×10^4 per a well using a 96-well cell dispenser (Titertek). On the day of assay, the 96-well plate to which the cells were attached were washed three times with a HEPES buffer solution (unit mM: 150 NaCl, 5 KCl, 1 MgCl2, 2 CaCl2, 10 HEPES, 10 glucose, pH 7.4) using a 96-well plate automatic washing device (Bio Tek), and then reacted with a HEPES buffer solution containing 5 μM fluo-3/AM and 0.001% (w/v) Pluronic F-127 at room temperature for 1 hour, to label with fluorescent dye, and then further washed twice with the HEPES buffer solution. Thereafter, at 10 minutes before the measurement using a FDSS6000 device, a washing with a HEPES buffer solution containing 10 mM CaCl2 was conducted once more, and the final volume was adjusted to 81 μl. Besides the above 96-well plate containing the cells, additional two 96-well drug plates were provided, in which the 96-well plates contained KCl (final concentration: 75 mM) for activating T-type calcium channel and a blocker drug, respectively.
Since most of cell-based HTS (High throughput screening) devices are equipped with a liquid application system for drug injection, but have no liquid sucking system, the blocker drug to be tested and KCl were respectively provided at the five-times higher concentration in 10 mM CaCl2 HEPES buffer solution at the amount of 27 μl, diluted five-times at the final cell plate volume of 135 μl, and then used in this test. In this Experimental Example, therefore, FDSS6000 (Hamamatsu Photonics) was used as an alternative to HTS device.
Specific FDSS6000 measurement conditions are as follows: After recording the reference value of 20 seconds, the change of intracellular calcium concentration which induced by pre-treatment of the drug (the prepared […]) for 75 seconds followed by administration of KCl was measured, in which the percentage (%) inhibition effect of the test drug was determined, through estimating the area of ratio value of 340/380 in the control without treatment of the test drug as 100%. As a reference drug, 10 μM of mibefradil was always used.
For accurate calcium-imagination, the light sources of 4 xenon lamps in FDSS6000 were radiated to make the cells exposed selectively to the excitation wavelength (340 nm and 380 nm) by computer-controlled filter wheel. Data was obtained at interval of each 1.23 second. The emitter fluorescence light inflow through a 515 nm long-pass filter was obtained as an average 340/380 ratio value for each well in the 96-wells by a cooled CCD camera and digital fluorescence analyzer in the device. All image data and analysis were obtained by using a FDSS6000-exclusive program provided by Hamamatsu Photonics, as described above.

TREK-1 channel = target: T1, TREK-1 channel (Rattus norvegicus, UniProt Q920B6); assay: Assay for TREK channel inhibition activity (whole cell patch clamp recording, COS7 cell transfected with GFP-rTREK-1); type: cell-based; conditions: COS7 cells, GFP-rTREK-1, whole-cell patch clamp; for inhibition at 101 µM: COS-7, Table 3 (value ± spread), 101 μM [sic], read-out: block % at 101 μM; for inhibition at 10 µM: COS-7, Table 2, read-out: block % at 10 μM
T1 construct: expressed in transfected cells; host or cells: COS7 (Korean Cell Line Bank), transient transfection with Effectene
T1 sequence (Q920B6 1-426): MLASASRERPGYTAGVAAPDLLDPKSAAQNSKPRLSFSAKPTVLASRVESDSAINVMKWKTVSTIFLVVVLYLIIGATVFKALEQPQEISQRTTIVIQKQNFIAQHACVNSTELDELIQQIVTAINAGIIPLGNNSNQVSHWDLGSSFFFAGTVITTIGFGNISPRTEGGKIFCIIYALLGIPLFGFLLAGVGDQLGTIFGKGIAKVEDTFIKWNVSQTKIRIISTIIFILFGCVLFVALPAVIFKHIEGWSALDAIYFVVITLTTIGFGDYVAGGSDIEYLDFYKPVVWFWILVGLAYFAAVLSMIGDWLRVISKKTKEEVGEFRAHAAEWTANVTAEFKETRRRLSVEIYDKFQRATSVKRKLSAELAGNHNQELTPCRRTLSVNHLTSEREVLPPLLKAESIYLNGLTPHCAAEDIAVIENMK
Protocol: The inhibition activity of the compound of the present invention against TREK-1 channel was measured by measuring the physiological activity by whole cell patch clamp recording.
COS7 cell (obtained from Korean Cell Line Bank (KCLB)) was transfected with GFP-rTREK-1 gene (accession number: AY727922) using an Effectene transfection reagent (Qiagen), and cultured for 24 hours in an incubator at 37° C. As a culture medium, Dulbecco's modified Eagle's medium (DMEM, GIBCO products from Invitrogen) containing 10% by weight of fetal bovine serum (FBS) and 1% by weight of penicillin/streptomycin (5000 unit/ml) was used. The cells thus prepared were adhered on a cover glass, which was placed on a chamber, and then a recording solution (150 mM NaCl, 10 mM HEPES, 10 mM KCl, 2 mM CaCl2, 5.5 mM D-Glucose, all reagents were purchased from Sigma) was applied. A glass microelectrode was filled with an intracellular solution prepared with the composition of 150 mM KCl, 5 mM EGTA, 10 mM HEPES, 0.5 mM CaCl2, 1 mM MgCl2, 4 mM Mg-ATP, and 0.3 mM Na-GTP (all reagents were purchased from Sigma), followed by whole-cell patch clamp recording. The voltage was fixed at −70 mV using a Digidata 1322A data acquisition system (Molecular Devices) and an Axopatch 200A amplifier (Axon Instruments), and the current generated by applying a voltage ramp from −100 mV to +100 mV for 1 second was measured using a Clampex9.2 program. A difference between the current values measured at +100 mV and −100 mV was defined as a current in the above experiment. The currents before and after blocker treatment were measured so as to determine the inhibition activity.
Block %=100−(current after blocker treatment/current before blocker treatment)*100

Sequence of α1G T-type calcium channel (O43497 whole entry): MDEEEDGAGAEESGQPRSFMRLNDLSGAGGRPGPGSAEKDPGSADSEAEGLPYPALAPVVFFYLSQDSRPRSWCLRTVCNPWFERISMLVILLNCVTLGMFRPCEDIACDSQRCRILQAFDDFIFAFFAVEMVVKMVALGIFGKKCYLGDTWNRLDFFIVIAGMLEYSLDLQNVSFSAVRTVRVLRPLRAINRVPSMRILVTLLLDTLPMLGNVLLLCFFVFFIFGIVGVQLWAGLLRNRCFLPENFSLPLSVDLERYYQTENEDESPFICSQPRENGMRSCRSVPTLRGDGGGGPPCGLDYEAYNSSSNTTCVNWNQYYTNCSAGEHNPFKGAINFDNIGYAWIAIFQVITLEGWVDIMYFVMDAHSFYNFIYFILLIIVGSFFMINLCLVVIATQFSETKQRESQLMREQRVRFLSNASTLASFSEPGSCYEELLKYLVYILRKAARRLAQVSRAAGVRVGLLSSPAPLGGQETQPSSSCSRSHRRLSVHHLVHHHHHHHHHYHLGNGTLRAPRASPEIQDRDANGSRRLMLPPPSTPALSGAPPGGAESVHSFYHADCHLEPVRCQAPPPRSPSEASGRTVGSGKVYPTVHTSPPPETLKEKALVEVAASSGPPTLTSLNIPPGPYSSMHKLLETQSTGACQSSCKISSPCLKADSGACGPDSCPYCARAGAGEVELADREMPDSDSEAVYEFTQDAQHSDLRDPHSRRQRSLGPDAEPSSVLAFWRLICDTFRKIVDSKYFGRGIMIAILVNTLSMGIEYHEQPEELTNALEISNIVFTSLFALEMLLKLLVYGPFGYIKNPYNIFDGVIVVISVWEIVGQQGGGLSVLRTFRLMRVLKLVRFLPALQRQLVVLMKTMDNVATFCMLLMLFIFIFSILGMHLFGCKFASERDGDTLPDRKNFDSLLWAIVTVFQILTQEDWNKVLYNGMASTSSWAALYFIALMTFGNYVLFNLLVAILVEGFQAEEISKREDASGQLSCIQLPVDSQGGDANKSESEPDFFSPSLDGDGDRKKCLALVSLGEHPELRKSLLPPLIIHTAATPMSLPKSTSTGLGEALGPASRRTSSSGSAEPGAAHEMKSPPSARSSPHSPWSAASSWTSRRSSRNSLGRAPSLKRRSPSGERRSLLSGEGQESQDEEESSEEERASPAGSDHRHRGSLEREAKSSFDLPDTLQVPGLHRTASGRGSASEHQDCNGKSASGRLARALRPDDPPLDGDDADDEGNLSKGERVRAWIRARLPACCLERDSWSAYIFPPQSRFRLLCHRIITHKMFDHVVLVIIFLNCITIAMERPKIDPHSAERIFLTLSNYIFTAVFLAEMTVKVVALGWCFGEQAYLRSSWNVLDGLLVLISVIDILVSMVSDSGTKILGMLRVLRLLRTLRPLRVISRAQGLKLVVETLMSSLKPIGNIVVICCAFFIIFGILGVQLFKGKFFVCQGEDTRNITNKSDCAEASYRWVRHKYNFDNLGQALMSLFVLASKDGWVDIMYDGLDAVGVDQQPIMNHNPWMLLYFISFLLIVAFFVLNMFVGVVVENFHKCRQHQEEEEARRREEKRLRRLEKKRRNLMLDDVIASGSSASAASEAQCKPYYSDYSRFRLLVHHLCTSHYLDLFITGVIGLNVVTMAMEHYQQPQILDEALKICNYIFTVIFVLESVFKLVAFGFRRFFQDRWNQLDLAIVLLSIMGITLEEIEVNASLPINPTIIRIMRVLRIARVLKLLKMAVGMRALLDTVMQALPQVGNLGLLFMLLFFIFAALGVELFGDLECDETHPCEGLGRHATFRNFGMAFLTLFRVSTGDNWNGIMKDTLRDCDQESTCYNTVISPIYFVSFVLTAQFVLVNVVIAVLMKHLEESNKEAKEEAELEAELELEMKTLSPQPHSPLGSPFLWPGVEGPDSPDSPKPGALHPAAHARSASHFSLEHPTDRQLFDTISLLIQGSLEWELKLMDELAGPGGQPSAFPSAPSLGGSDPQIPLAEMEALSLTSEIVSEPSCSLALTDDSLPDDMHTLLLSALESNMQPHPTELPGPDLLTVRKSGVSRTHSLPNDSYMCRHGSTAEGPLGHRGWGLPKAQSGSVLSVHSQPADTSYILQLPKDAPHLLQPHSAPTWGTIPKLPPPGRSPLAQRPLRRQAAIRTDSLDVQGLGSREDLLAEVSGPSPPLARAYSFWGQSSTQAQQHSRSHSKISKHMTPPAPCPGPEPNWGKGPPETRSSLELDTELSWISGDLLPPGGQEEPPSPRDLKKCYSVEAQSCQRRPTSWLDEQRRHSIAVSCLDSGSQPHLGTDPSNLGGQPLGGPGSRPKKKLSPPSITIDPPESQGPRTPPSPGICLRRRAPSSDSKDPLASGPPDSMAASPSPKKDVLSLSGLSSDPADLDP

SMILES | inhibition [1] [%] | inhibition at 101 µM (TREK-1 channel) [%] | inhibition at 10 µM (TREK-1 channel) [%] | block % at 100 μM (TREK-1 channel; Table 2) [%] | block % at 100 μM (TREK-1 channel; Table 3 (value ± spread)) [%]
OC(COc1ccc(F)cc1)CN1CCN(Cc2nccn2Cc2ccccc2)CC1 (stereo in doubt) [KKRE10154, (R)-1-(4-((1-benzyl-1H-imidazol-2-yl)methyl)piperazin-1-yl)-3-(4-fluorophenoxy)propan-2-ol] | 39.9 | 26.5 ± 3.97 |  |  | 
Cc1ccc(OC[C@@H](O)CN2CCN(Cc3c(F)cccc3Cl)CC2)cc1 [KKRE10138] |  | 13 ± 10.1 | 13 | 71.47 | 71.47 ± 3.30
O=C(CN1CCN(C[C@@H](O)COc2ccc(C(F)(F)F)cc2)CC1)Nc1ccc(F)cc1 [KKRE10145] |  | 35.2 ± 4.89 | 35.2 |  | 
O[C@@H](COc1ccc(C(F)(F)F)cc1)CN1CCN(Cc2nccn2Cc2ccccc2)CC1 [KKRE10153, (R)-1-(4-((1-benzyl-1H-imidazol-2-yl)methyl)piperazin-1-yl)-3-(4-(trifluoromethyl)phenoxy)propan-2-ol] | 46.9 | 52.1 ± 7.24 | 52.1 |  | 
O[C@@H](COc1ccc(F)cc1)CN1CCN(Cc2nccn2Cc2ccccc2)CC1 [KKRE10155, (R)-1-(4-((1-benzyl-1H-imidazol-2-yl)methyl)piperazin-1-yl)-3-(4-fluorophenoxy)propan-2-ol] | 33.7 | 24 ± 10.6 |  |  | 
O[C@@H](COc1ccc(F)cc1)CN1CCC(N2CCOCC2)CC1 [KKRE10156, (R)-1-(4-fluorophenoxy)-3-(4-morpholinopiperidin-1-yl)propan-2-ol] | 5.31 | 16.4 ± 5.65 |  |  | 
O[C@H](COc1ccc(F)cc1)CN1CCC(N2CCOCC2)CC1 [KKRE10157, (S)-1-(4-fluorophenoxy)-3-(4-morpholinopiperidin-1-yl)propan-2-ol] | 9.33 | 29.6 ± 3.71 |  |  | 
O[C@@H](COc1ccc(F)cc1)CN1CCC(N2CCCCC2)CC1 [KKRE10158, (R)-1-(1,4′-bipiperidin-1′-yl)-3-(4-fluorophenoxy)propan-2-ol] | 6.65 | 16.8 ± 2.73 |  |  | 
COc1cccc(C2CCN(C[C@@H](O)COc3ccc(F)cc3)CC2)c1 [KKRE10162, (R)-1-(4-fluorophenoxy)-3-(4-(3-methoxyphenyl)piperidin-1-yl)propan-2-ol] |  | 52.5 ± 6.76 | 52.5 |  | 
O=C(CN1CCN(CC(O)COc2ccc(C(F)(F)F)cc2)CC1)NC1CCCCC1 (stereo not drawn) [KKRE10177, N-cyclohexyl-2-(4-(2-hydroxy-3-(4-(trifluoromethyl)phenoxy)propyl)piperazin-1-yl)acetamide] | 42 |  |  |  | 
O[C@H](COc1ccc(C(F)(F)F)cc1)CN1CCC(N2CCCC2)CC1 [KKRE10189, (S)-1-(4-(pyrrolidin-1-yl)piperidin-1-yl)-3-(4-(trifluoromethyl)phenoxy)propan-2-ol] | 8.45 |  |  |  | 
O[C@H](COc1ccc(C(F)(F)F)cc1)CN1CCC(F)(F)CC1 [KKRE10190, (S)-1-(4,4-difluoropiperidin-1-yl)-3-(4-(trifluoromethyl)phenoxy)propan-2-ol] | 35 |  |  |  | 
O[C@H](COc1ccc(C(F)(F)F)cc1)CN1CCC(O)(c2ccccc2)CC1 [KKRE10191, (S)-1-(2-hydroxy-3-(4-(trifluoromethyl)phenoxy)propyl)-4-phenylpiperidin-4-ol] | 16.8 |  |  |  | 
Cc1ccc(CNC(=O)CN2CCN(C[C@H](O)COc3ccccc3)CC2)cc1 [KKRE10205, (S)-2-(4-(2-hydroxy-3-phenoxypropyl)piperazin-1-yl)-N-(4-methylbenzyl)acetamide] |  | 26.4 ± 12.2 | 26.4 |  | 
O=C(CN1CCN(C[C@@H](O)COc2ccccc2)CC1)NCc1ccc(C(F)(F)F)cc1 [KKRE10206, (R)-2-(4-(2-hydroxy-3-phenoxypropyl)piperazin-1-yl)-N-(4-(trifluoromethyl)benzyl)acetamide] |  | 44 ± 7.7 |  |  | 
O=C(CN1CCN(C[C@H](O)COc2ccccc2)CC1)NCc1ccc(C(F)(F)F)cc1 [KKRE10207, (S)-2-(4-(2-hydroxy-3-phenoxypropyl)piperazin-1-yl)-N-(4-(trifluoromethyl)benzyl)acetamide] |  | 53 ± 5.98 | 53 |  | 
O=C(CN1CCN(C[C@@H](O)COc2ccc(C(F)(F)F)cc2)CC1)NCc1cc(C2CC2)n(-c2ccccc2)n1 [KKRE10212, (R)-N-((5-cyclopropyl-1-phenyl-1H-pyrazol-3-yl)methyl)-2-(4-(2-hydroxy-3-(4-(trifluoromethyl)phenoxy)propyl)piperazin-1-yl)acetamide] | 74.3 |  |  |  | 
CC(C)Cc1cc(CN2CCN(C[C@@H](O)COc3ccc(C(F)(F)F)cc3)CC2)nn1-c1ccccc1 [KKRE10231] |  | 48.5 ± 4.26 |  |  | 
CC(C)Cc1cc(CN2CCN(C[C@H](O)COc3ccc(F)cc3)CC2)nn1-c1ccccc1 [KKRE10232] |  | 21.7 ± 3.13 |  |  | 
CC(C)Cc1cc(CN2CCN(C[C@@H](O)COc3ccc(F)cc3)CC2)nn1-c1ccccc1 [KKRE10233] |  | 21.6 ± 4.63 |  |  | 
CC(C)Cc1cc(CN2CCN(C[C@H](O)COc3ccc(C(F)(F)F)cc3)CC2)nn1-c1ccccc1 [KKRE10234] |  | 84.2 ± 2.22 |  |  | 
CC[C@H]1CN2CC[C@H]1C[C@H]2[C@H](O)c1ccnc2ccc(OC)cc12 [hydroquinine, reference compound] |  | 19.8 ± 9.57 | 19.8 | 49.71 | 49.71 ± 5.83
C=C[C@H]1C[N@@]2CC[C@H]1C[C@@H]2[C@@H](O)c1ccnc2ccc(OC)cc12 [quinidine, reference compound] |  |  |  | 33.46 | 33.46 ± 8.09
C=C[C@H]1C[N@@]2CC[C@H]1C[C@H]2[C@H](O)c1ccnc2ccc(OC)cc12 [quinine, reference compound] |  | 17 ± 6.93 | 17 | 50.00 | 50.00 ± 5.72
